Consider 17 molecules from US6410573B1, “2,5-substituted benzolsulfonylureas and thioureas methods for the production thereof use thereof and pharmaceutical preparations containing the same” (Aventis Pharma Deutschland GmbH, priority 1998, dated 2002).

Series [1] deals with papillary muscle of the guinea pig. As to the kind of experiment: Action potential duration (APD90) in the papillary muscle of the guinea pig, shortened by rilmakalim (HOE 234). In kind it is cell-based. The settings on record: test substance 2 μmol/l, 60 min after its addition; rilmakalim (HOE 234) 1 μg/ml given 30 min before; starting values 165-191, after HOE 234 alone 18-37; 37° C., 1 Hz. The text has this:
Test 1: Action potential duration in the papillary muscle of the guinea pig
ATP deficiency states, such as are observed during ischemia in the cardiac muscle cell, lead to a reduction of the action potential duration. They are regarded as one of the causes of so-called reentry arrhythmias, which can cause sudden heart death. The opening of ATP-sensitive potassium channels by the lowering of ATP (adenosine triphosphate) is regarded as causing this.
A standard microelectrode technique was employed for the measurement of the action potential in the papillary muscle of the guinea pig. For this guinea pigs of both sexes were killed by a blow to the head, the hearts were removed, the papillary muscles were separated out and suspended in an organ bath. The organ bath was irrigated with Ringer's solution (136 mmol/l of NaCl, 3.3 mmol/l of KCl, 2.5 mmol/l of CaCl2, 1.2 mmol/l of KH2PO4, 1.1 mmol/l of MgSO4, 5.0 mmol/l of glucose, 10.0 mmol/l of N-(2-hydroxyethyl)piperazine-N′-(2-ethanesulfonic acid) (HEPES), pH adjusted to 7.4 with NaOH) and aerated with 100% oxygen at a temperature of 37° C. The muscle was stimulated by means of an electrode using squarewave impulses of 1 V and 1 ms duration and a frequency of 1 Hz. The action potential was derived and recorded by means of a glass microelectrode inserted intracellularly, which is filled with 3 mol/l of KCl solution. The substance to be tested was added to the Ringer's solution in a concentration of 2 μmol/l. The action potential was amplified using an amplifier from Hugo Sachs (March-Hugstetten, Germany) and stored and analyzed by means of a computer. The duration of the action potential was determined at a degree of repolarization of 90% (APD90). The action potential reduction was produced by addition of a solution of the potassium channel opener rilmakalim (HOE 234) (W. Linz, E. Klaus, U. Albus, R. H. A. Becker, D. Mania, H. C. Englert, B. A. Schölkens, Arzneimittelforschung/Drug Research, 42 (II) (1992) 1180-1185) (rilmakalim concentration 1 μg/ml). 30 minutes after the administration of rilmakalim, the action potential duration APD90 was recorded. The test substance was then added and the action potential duration APD90, which was extended again, was recorded after a further 60 minutes. The test substances were added to the bath solution as stock solutions in propanediol.

Another series concerns RINm5F cells. The series can be described thus: Membrane potential on isolated β cells (whole-cell patch clamp, RINm5F cells). The settings on record: 1 μmol/l test substance, diaxozide 100 μmol/l in bath, 34±1° C., control potential before addition −70 to −78 mV. In kind it is cell-based. An excerpt: Test 2: Membrane potential on isolated β cells
The mechanism of action of the hypoglycemic sulfonylureas such as, for example, glibenclamide has been elucidated in broad outline. The target organ of the sulfonylureas is the β cell of the pancreas, where they contribute to the release of the hypoglycemic hormone insulin by influencing the electrical potential of the cell membrane. A hypoglycemic sulfonylurea such as, for example, glibenclamide brings about a depolarization of the cell membrane, which leads to a […] influx of calcium ions and as a consequence of this to insulin release. The extent ΔU of this depolarization of the cell membrane by the test substances was determined on insulin-secreting RINm5F cells, a pancreas tumor cell line. The potency of a compound in this model predicts the extent of the […] potential of this compound.
Cell cultures of RINm5F cells: RINm5F cells were cultured at 37° C. in RPMI 1640 culture medium (Flow), to which 11 mmol/l of glucose, 10% (v/v) fetal calf serum, 2 mmol/l of glutamine and 50 μg/ml of gentamycin were added. The cells were inoculated onto petri dishes every 2 to 3 days and kept in a humidified atmosphere of […] and 5% CO2 at a temperature of 37° C. For the investigations, the cells were isolated by incubation (about 3 min) in a Ca^2+-free medium which contains 0.25% trypsin.
Measuring method: in a Plexiglas chamber, isolated RINm5F cells were applied to an inverted microscope which was equipped with differential interference contrast optics. Under visual control (400× magnification), a fire-polished micropipette having an opening diameter of approximately 1 μm was placed onto the cell with the aid of a micromanipulator. By applying a slight underpressure to the interior of the patch pipette, a high electrical seal between the glass and cell membrane was first produced. Then, by increasing the underpressure, the membrane spot under the measuring pipette was torn off. In this whole-cell configuration, the cell potential was recorded with the aid of a patch clamp amplifier (L/M EPC 7, List, Darmstadt) and the whole-cell current was measured by applying a voltage ramp. […] Stock solutions of the test substances in a concentration of 100 mmol/l in DMSO and corresponding dilutions in an NaCl solution were prepared. DMSO on its own had no effect on the cell potential. In order to stabilize the cell potential, diaxozide (100 μmol/l), an opener for ATP-sensitive K^+ channels, was added to the bath solution in all experiments. All experiments were carried out at 34±1° C.
A general note: The patch-clamp technique gives a direct electrical read-out from membranes.

Structures are written as SMILES.

Regarding `CNC(=S)NS(=O)(=O)c1cc(CCNC(=O)c2cc(Cl)ccc2OC)ccc1-c1ccccc1` [Example 1, 5-(2-(5-Chloro-2-methoxybenzamido)ethyl)-N-(methylaminothiocarbonyl)-2-phenylbenzenesulfonamide], the “APD90 +HOE 234, 30 min., then +substance, 60 min.” value in series [1] amounted to 134 milliseconds. In addition, the “ΔU (depolarization of the cell potential)” value in the series on RINm5F cells is recorded as 6 mV.

One may read the melting point as the temperature, or range, at which the solid turns liquid. The molecule `CCNC(=S)NS(=O)(=O)c1cc(CCNC(=O)c2cc(Cl)ccc2OC)ccc1-c1ccccc1` [Example 3, 5-(2-(5-Chloro-2-methoxybenzamido)ethyl)-N-(ethylaminothiocarbonyl)-2-phenylbenzenesulfonamide] came in with a melting point of 168 to 170 °C. For `CCNC(=O)NS(=O)(=O)c1cc(CCNC(=O)c2cc(Cl)ccc2OC)ccc1-c1ccccc1` [Example 4, 5-(2-(5-Chloro-2-methoxybenzamido)ethyl)-N-(ethylaminocarbonyl)-2-phenylbenzenesulfonamide], the “APD90 +HOE 234, 30 min., then +substance, 60 min.” value in series [1] was 81 milliseconds.

`CNC(=S)NS(=O)(=O)c1cc(CCNC(=O)c2cc(Cl)ccc2OC)ccc1-c1ccc(F)cc1` [Example 7, 5-(2-(5-Chloro-2-methoxybenzamido)ethyl)-2-(4-fluorophenyl)-N-(methyl-aminothiocarbonyl)benzenesulfonamide]: in series [1], the “APD90 +HOE 234, 30 min., then +substance, 60 min.” value came out at 71 milliseconds.

Take `CNC(=S)NS(=O)(=O)c1cc(CCNC(=O)c2cc(Cl)ccc2OC)ccc1-c1ccc(Cl)cc1` [Example 8, 5-(2-(5-Chloro-2-methoxybenzamido)ethyl)-2-(4-chlorophenyl)-N-(methyl-aminothiocarbonyl)benzenesulfonamide]: the melting point lay in the range of 189 to 192 °C.

For `CNC(=S)NS(=O)(=O)c1cc(CCNC(=O)c2cc(Cl)ccc2OC)ccc1-c1ccc(OC)cc1` [Example 9, 5-(2-(5-Chloro-2-methoxybenzamido)ethyl)-2-(4-methoxyphenyl)-N-(methylaminothiocarbonyl)benzenesulfonamide], the melting point lay in the range of 185 to 188 °C. Also, the “ΔU (depolarization of the cell potential)” value with RINm5F cells is recorded as 15 mV. Take `CCNC(=S)NS(=O)(=O)c1cc(CCNC(=O)c2cc(Cl)ccc2OC)ccc1-c1ccc(SC)cc1` [Example 10, 5-(2-(5-Chloro-2-methoxybenzamido)ethyl)-N-(ethylaminothiocarbonyl)-2-(4-methylthiophenyl)benzenesulfonamide]: the melting point was in the range of 178 to 179 °C.

Molecule `CNC(=S)NS(=O)(=O)c1cc(CCNC(=O)c2cc(Cl)ccc2OC)ccc1-c1cccs1` [Example 12, 5-(2-(5-Chloro-2-methoxybenzamido)ethyl)-N-(methylaminothiocarbonyl)-2-(2-thienyl)benzenesulfonamide] had a melting point of 189 to 191 °C. In the series on RINm5F cells, the “ΔU (depolarization of the cell potential)” value is 5 mV.

On to `CNC(=O)NS(=O)(=O)c1cc(CCNC(=O)c2cc(Cl)ccc2OC)ccc1-c1cccs1` [Example 13, 5-(2-(5-Chloro-2-methoxybenzamido)ethyl)-N-(methylaminocarbonyl)-2-(2-thienyl)benzenesulfonamide], for which the “APD90 +HOE 234, 30 min., then +substance, 60 min.” value in series [1] is listed as 72 milliseconds. In turn, `CNC(=S)NS(=O)(=O)c1cc(CCNC(=O)c2cc(Cl)ccc2OC)ccc1-c1ccco1` [Example 14, 5-(2-(5-Chloro-2-methoxybenzamido)ethyl)-2-(2-furyl)-N-(methylaminothiocarbonyl)benzenesulfonamide] displayed a melting point of 145 to 146 °C. Further, the “ΔU (depolarization of the cell potential)” value in the series on RINm5F cells is 7 mV. With `CNC(=O)NS(=O)(=O)c1cc(CCNC(=O)c2cc(Cl)ccc2OC)ccc1-c1ccco1` [Example 15, 5-(2-(5-Chloro-2-methoxybenzamido)ethyl)-2-(2-furyl)-N-(methylaminocarbonyl)benzenesulfonamide], in series [1], the “APD90 +HOE 234, 30 min., then +substance, 60 min.” value is on record as 83 milliseconds.

In the case of `CNC(=S)NS(=O)(=O)c1cc(CCNC(=O)c2cc(Cl)ccc2OC)ccc1-c1ccccn1` [Example 16, 5-(2-(5-Chloro-2-methoxybenzamido)ethyl)-N-(methylaminothiocarbonyl)-2-(2-pyridyl)benzenesulfonamide], the “APD90 +HOE 234, 30 min., then +substance, 60 min.” value in series [1] stood at 153 milliseconds.

`CNC(=O)NS(=O)(=O)c1cc(CCNC(=O)c2cc(Cl)ccc2OC)ccc1-c1ccccn1` [Example 17, 5-(2-(5-Chloro-2-methoxybenzamido)ethyl)-N-(methylaminocarbonyl)-2-(2-pyridyl)benzenesulfonamide]: the melting point was determined as 160 °C.

Turning to `C=CCc1ccc(CCNC(=O)c2cc(Cl)ccc2OC)cc1S(=O)(=O)NC(=O)NC` [Example 18, 2-Allyl-5-(2-(5-chloro-2-methoxybenzamido)ethyl)-N-(methylaminocarbonyl)benzenesulfonamide], the melting point fell in the range of 124 to 126 °C. Molecule `C#Cc1ccc(CCNC(=O)c2cc(Cl)ccc2OC)cc1S(=O)(=O)NC(=S)NC` [Example 19, 5-(2-(5-Chloro-2-methoxybenzamido)ethyl)-2-ethynyl-N-(methylaminothiocarbonyl)benzenesulfonamide] displayed a melting point of 224 to 225 °C. As for `CNC(=S)NS(=O)(=O)c1cc(CCNC(=O)c2cc(Cl)ccc2OC)ccc1Sc1ccccc1` [Example 20, 5-(2-(5-Chloro-2-methoxybenzamido)ethyl)-N-(methylaminothiocarbonyl)-2-(phenylsulfanyl)benzenesulfonamide], in series [1], the “APD90 +HOE 234, 30 min., then +substance, 60 min.” value stood at 139 milliseconds. Take `COc1ccc(Cl)cc1C(=O)NCCc1ccc(S(=O)(=O)NC(=O)NC2CCCCC2)cc1` [Glibenclamide, reference compound]: the “ΔU (depolarization of the cell potential)” value in the series with RINm5F cells was 47 mV.
